Publication PMC4279406, “Simultaneous targeting of PI3Kδ and a PI3Kδ-dependent MEK1/2-Erk1/2 pathway for therapy in pediatric B-cell acute lymphoblastic leukemia” (Oncotarget, 2014)

Tests used:
[1] = tested on: PI3Kα (IGF-1-stimulated MEF cells); assay: IGF-1-induced Akt phosphorylation in MEF cells; format: cell-based, murine; details: up to 0.5 μM; IGF-1 100 ng/ml; 1 h pre-incubation
Method: In fibroblasts, signals from the insulin-like growth factor 1 (IGF-1) receptor are mediated by PI3Kα, while lysophosphatidic acid (LPA) stimulates G-protein coupled receptor (GPCR) signals via PI3Kβ[26]. After being pre-incubated with X-370, murine embryonic fibroblasts cultured in serum-free medium were stimulated with IGF-1 or LPA. […] Either PI3Kδ or PI3Kγ can be activated in THP-1 monocytes dependent on the stimulating ligand, among which macrophage colony stimulating factor (M-CSF/CSF-1) activates RTK-coupled PI3Kδ, while monocyte chemoattractant protein-1 (MCP-1) activates PI3Kγ [24]. Accordingly, THP-1 cells cultured in serum-free medium were stimulated with MCP-1 or M-CSF in the presence of X-370 and phosphorylated Akt was measured.
Cell lysates were probed with indicated antibodies. The IC50 values were calculated based on relative band intensity measured with ImageQuant™ TL (GE Healthcare Life Sciences, Piscataway, NJ) (B). Data shown are mean values from three independent experiments. (C, D, E, F) X-370 blocked stimuli-triggered PI3Kδ activation. MEF cells and THP-1 were starved in serum-free medium for 12 h or 4 h respectively and X-370 were added for an additional 1 h treatment following stimulation of IGF-1 at 100 ng/ml for MEF cells (C), LPA at 10 μM for MEF cells (D), MCP-1 at 100ng/ml for THP-1 (E) and M-CSF at 50 ng/ml for THP-1 (F). […]

[2] = tested on: Raji cells; assay: Cell cycle distribution (PI staining, FACS); format: cell-based, human; details: 24 h
Excerpt: Figure 3 PI3Kδ inhibition led to blockade of B cell leukemia cells proliferation via induction of cell cycle arrest and apoptosis Raji cells treated with X-370 for indicated times and at serial diluted concentrations were subjected to Annexin V-FITC/PI staining (A) and PI staining (B) and FACS analysis to show cell apoptosis and cell cycle distribution respectively. (C) X-370 inhibited proliferation of human leukemia primary cells. Freshly isolated human primary mononuclear cells from bone marrow samples of patients were treated with X-370 for 72 h and cell viability was assayed using CCK-8 assay. IC50s of each sample were plotted where 10 μM was assigned to specimens with IC50 >10 μM. Each symbol represents an individual patient sample. […]

O=C(N1CCCC1)N1CCC(n2cnc3c(-n4c(C(F)F)nc5ccccc54)nc(N4CCOCC4)nc32)CC1 [X-370]
IGF-1-induced Akt phosphorylation [1]: partially inhibited
cell cycle distribution [2]: increase in cell population in G1 phase
